Experimental findings from ChEMBL document CHEMBL1129122, “Synthesis and antimicrobial activity of 4-amino trinems” (1996) are described below.

What all share (type): functional
Assay [1] concerns Escherichia coli. As to the kind of experiment: In vitro antibacterial activity against Escherichia coli 1850 strain.
The next assay has as its system Pseudomonas aeruginosa. The experiment in a line: In vitro antibacterial activity against Pseudomonas aeruginosa 1911 strain.
The test system of assay [2] is Escherichia coli. The experiment in a line: In vitro antibacterial activity against Escherichia coli 1919 strain.
The subject of another assay is Enterococcus faecalis. As to the kind of experiment: In vitro antibacterial activity against Enterococcus faecalis 850 strain.
Assay [3] concerns Staphylococcus aureus. The experiment in a line: In vitro antibacterial activity against Staphylococcus aureus 853 strain.
Assay [4] deals with Staphylococcus aureus. The experiment in a line: In vitro antibacterial activity against Staphylococcus aureus 663 strain.

In brackets after ≈: the same amount, converted by molar mass. Where only a bound is given, the exact number is not on record here.

By MIC is commonly meant the lowest concentration that inhibits growth of the organism. On to `CN[C@H]1CCC[C@H]2C1=C(C(=O)O)N1C(=O)[C@H]([C@@H](C)O)[C@@H]21`, for which the minimal inhibitory concentration (MIC) worked out at 2 µg/mL (≈ 7.13 µM) against Escherichia coli [1]; 4 µg/mL (≈ 14.3 µM) against Pseudomonas aeruginosa; 0.5 µg/mL (≈ 1.78 µM) against Escherichia coli [2]; 16 µg/mL (≈ 57.1 µM) against Enterococcus faecalis; 0.5 µg/mL (≈ 1.78 µM) in the assay on Staphylococcus aureus [3]; 0.25 µg/mL (≈ 0.892 µM) against Staphylococcus aureus [4].

On to `C[C@@H](O)[C@H]1C(=O)N2C(C(=O)O)=C3[C@H](CCC[C@@H]3N(C)C)[C@H]12`, for which the MIC was 2 µg/mL (≈ 6.79 µM) against Escherichia coli [1]; 8 µg/mL (≈ 27.2 µM) against Pseudomonas aeruginosa; 1 µg/mL (≈ 3.4 µM) against Escherichia coli [2]; greater than 32 µg/mL in the assay with Enterococcus faecalis; 0.25 µg/mL (≈ 0.849 µM) with Staphylococcus aureus [3]; 0.25 µg/mL (≈ 0.849 µM) in the assay on Staphylococcus aureus [4].

As to `C[C@@H](O)[C@H]1C(=O)N2C(C(=O)O)=C3[C@@H](NC4CCCC4)CCC[C@@H]3[C@H]12`, the MIC in the assay with Escherichia coli [1] turned out to be 8 µg/mL (≈ 23.9 µM); against Pseudomonas aeruginosa, 32 µg/mL (≈ 95.7 µM); in the assay on Escherichia coli [2], 32 µg/mL (≈ 95.7 µM); in the assay with Enterococcus faecalis it was 32 µg/mL (≈ 95.7 µM); in the assay on Staphylococcus aureus [3], 4 µg/mL (≈ 12 µM); in the assay with Staphylococcus aureus [4], 8 µg/mL (≈ 23.9 µM).

Turning to `CO[C@H]1CCC[C@H]2C1=C(C(=O)[O-])N1C(=O)[C@H]([C@@H](C)O)[C@@H]21.[Na+]` [SANFETRINEM SODIUM], the minimal inhibitory concentration (MIC) in the assay with Escherichia coli [1] was 0.5 µg/mL; against Pseudomonas aeruginosa, greater than 32 µg/mL; against Escherichia coli [2] it was 0.5 µg/mL; in the assay on Enterococcus faecalis, 1 µg/mL; with Staphylococcus aureus [3], 0.25 µg/mL; against Staphylococcus aureus [4], 0.25 µg/mL.

On to `C[C@@H](O)[C@H]1C(=O)N2C(C(=O)O)=C3[C@@H](N)CCC[C@@H]3[C@H]12`, for which the MIC against Escherichia coli [1] was 1 µg/mL (≈ 3.76 µM); against Pseudomonas aeruginosa it was 4 µg/mL (≈ 15 µM); against Escherichia coli [2], 0.5 µg/mL (≈ 1.88 µM); against Enterococcus faecalis, 16 µg/mL (≈ 60.1 µM); against Staphylococcus aureus [3], 0.25 µg/mL (≈ 0.939 µM); against Staphylococcus aureus [4], 0.25 µg/mL (≈ 0.939 µM).
